Where two headings read alike, the source gives them in different places.
Tests used:
tau fibrils = tau fibrils (Homo sapiens, UniProt P10636); details: cited from earlier work
[1] = molecular target: T1, YFP-tagged full length 0N4R-Tau P301S aggregates seeded by 416-AD11A lysate (T24 cells) (Homo sapiens, UniProt P10636, P618S); experiment: Tau-AD high throughput screening (counter screen) in T24 cells; type: cell-based; details: T24 cells transfected with 416-AD11A lysate
T1 construct: C-terminally YFP-tagged full length 0N4R-Tau carrying a P301S mutation; expressed in transfected cells
T1 sequence (P10636 1-383 isoform P10636-6 P243S): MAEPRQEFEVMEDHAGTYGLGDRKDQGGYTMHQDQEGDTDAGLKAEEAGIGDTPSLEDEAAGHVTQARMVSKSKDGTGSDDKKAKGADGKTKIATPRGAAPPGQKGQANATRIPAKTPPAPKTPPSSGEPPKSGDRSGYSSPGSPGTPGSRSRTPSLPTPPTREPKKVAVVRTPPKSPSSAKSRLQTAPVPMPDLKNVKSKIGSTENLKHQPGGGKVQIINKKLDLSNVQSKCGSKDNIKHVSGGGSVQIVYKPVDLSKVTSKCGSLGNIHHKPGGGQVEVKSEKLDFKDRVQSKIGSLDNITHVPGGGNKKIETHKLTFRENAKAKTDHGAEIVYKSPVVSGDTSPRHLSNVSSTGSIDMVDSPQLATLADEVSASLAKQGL
Procedure: A fragment of the Middle Tempral Gyrus (MTG) from Alzheimer's Disease (AD) patient 2217 was resuspended in 9 volumes of PBS (ml/g of brain) and homogenized 3×12 seconds using a probe homogenizer (Thomas Scientific) with disposable Omni Tip plastic homogenizing probes (Thomas Scinetific Cat No 3409Y77) to generate a 10% brain homogenate (10% AD11-BH). The 10% AD11-BH was clarified of insoluble debris by centrifugation at 800×g for 5 minutes. The resulting supernatant was collected and the protein concentration of this clarified BH (AD11-CBH) was determined by bicinchoninic acid assay (BCA) (Thermo Fisher Cat No. 23227). HEK293 cells stably expressing a C-terminally Clover-tagged truncated 4R-Tau^243-382 transgene containing the P301L and V337M mutations and a C-terminally Ruby-tagged truncated 3R-Tau^243-382 transgene containing the L266V and V337M mutations (128/139 cells) were transfected with the AD11-CBH using lipofectamine 2000 (LF2K) (Thermo Fisher Cat No. 11668500). Briefly, 0.32 μl of LF2K were diluted in 5 μl Opti-MEM (Thermo Scientific Cat No 31985070) per well of a 384-well plate and incubated for 5 min at room temperature (RT). This mixture was added to 0.32 μg of AD11-CBH diluted in 5 μl of PBS per well of a 384-well plate and vortex briefly. The transfection mixture was incubated at room temperature for 90 min. The transfection complexes were subsequently added to a single well of a 384-well plate containing 3500 128/139 cells. After 3 days the cells were harvested, counted and plated at a density of 1 cell/well in a 96-well plate. A clonal cell line containing Clover and Ruby positive Tau aggregates was selected and termed 416-AD11A cells. Following the expansion of these 416-AD11A cells, a cell lysate was prepared by freeze/thaw. The cells from a confluent T175 flask were harvested in 1 ml of PBS containing 1× protease inhibitor cocktail by scraping. The cell suspension was subjected to 4 cycles of freezing in liquid nitrogen for 5 minutes followed by thawing at 37° C. for 5 minutes. The resulting cell lysate was centrifuged at 2000 RPM for 10 minutes to remove the cell debris and the protein concentration of the resulting 416-AD11A lysate was determined by BCA assay and aliquots frozen for future use.
HEK293 cells stably expressing C-terminally YFP-tagged full length 0N4R-Tau carrying a P301S mutation (T24 cells) are plated at a density of 4000 cells per well of a 384-well black walled, clear bottom plate (Greiner Cat No 5678-1091Q) in 60 μl of complete DMEM (DMEM (Corning Cat No 10-013-CV), 10% FBS (VWR Cat No 97068-085, 0.5% Penicilin/streptomycin (Gibco Cat No 15140-122)) containing 0.1 μg/ml Hoechst Dye (Thermo Scientific Cat No H3570). Transfection complexes are prepared by diluting 0.15 μg of 416-AD11A lysate or HEK lysate in 5 μl of PBS per well to be transfected and 0.15 μl of Lipofectamine 2000 (LF2K) (ThermoFisher Cat No 11668500) in 5 μl of Opti-MEM per well to be transfected in separate tubes. The pre-diluted 416-AD11A or HEK lysates and LF2K are subsequently mixed and allowed to incubate for 90 minutes at RT. A 10 μl aliquot of the 416-AD11A or HEK transfection complexes is added to the appropriate wells of the 384-well plate containing the T24 cells using the Bravo liquid handling platform (Agilent). Wells A23-P24 of the 384-well plate are transfected with HEK lysate to act as a reference point for spontaneous aggregation of 0N4R^P301S and for transfection related toxicity. The dilution of test compounds is performed using the Bravo liquid handling platform (Agilent). The control is DMSO in the absence of any test compound. Briefly, 1 μl of each test compound (5 mM stock) in the 384-well test plate was transferred to a 384-well plate (Greiner Cat No 781280) containing 61.5 μl of complete DMEM to generate a working stock of compounds at 80 μM. […]

[2] = Parallel Artificial Membrane Permeability Assay (PAMPA); type: in vitro ADME; details: for PAMPA: P_app: 200 uM test compound, 4 hr; for Papp at 4 hr, 200 uM: PAMPA, read-out: PAMPA: P_app
Procedure: 5 uL of 1% lecithin (VWR 0579) dissolved in n-dodecane (Sigma Aldrich D221104) was applied to each well of a MultiScreen IP PAMPA filter plate (Millipore MAIPSWU10) and allowed to equilibrate for 5 minutes. 300 uL of PBS was added to the acceptor plate and 150 uL of 200 uM test compound dissolved in PBS and 30% ethanol was added to the donor wells before incubating the donor plate in the acceptor plate for 4 hr at 500 rpm. 100 uL was sampled from the donor and acceptor wells and the concentrations were measured by liquid chromatography-mass spectrometry (SCIEX 4500) or UV-VIS plate reader (BMG).

Chain of tau fibrils (P10636 1-441 isoform P10636-8): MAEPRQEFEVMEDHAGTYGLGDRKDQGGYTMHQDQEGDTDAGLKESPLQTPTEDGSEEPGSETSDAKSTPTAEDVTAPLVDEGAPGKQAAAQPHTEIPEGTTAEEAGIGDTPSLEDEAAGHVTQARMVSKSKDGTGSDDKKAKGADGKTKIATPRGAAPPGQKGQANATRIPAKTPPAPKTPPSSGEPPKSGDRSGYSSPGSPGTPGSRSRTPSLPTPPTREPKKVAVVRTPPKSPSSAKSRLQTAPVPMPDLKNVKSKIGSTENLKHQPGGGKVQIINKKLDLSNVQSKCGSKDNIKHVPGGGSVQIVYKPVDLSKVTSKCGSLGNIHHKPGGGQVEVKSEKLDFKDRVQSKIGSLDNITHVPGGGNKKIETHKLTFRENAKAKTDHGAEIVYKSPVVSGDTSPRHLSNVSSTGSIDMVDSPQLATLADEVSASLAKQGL

Row | AD Tau Aggregates (% control) [1] | PAMPA: P_app ([2]; pH 5.0) | PAMPA: P_app ([2]; pH 7.4) | Papp at 4 hr, 200 uM ([2]; pH 5.0, 200 uM test compound) | Papp at 4 hr, 200 uM ([2]; pH 7.4, 200 uM test compound) | SMILES | IC50 (tau fibrils; GTP-1, read-out: measured IC50) | Kd (tau fibrils; tau PET tracer GTP-1, estimated Kd)
1 | – | – | – | – | – | FCCC1CCN(c2ccn3c(n2)nc2ccccc23)CC1 [GTP-1] | 22 nM | 11 nM
2 | 94 % control | 4.6 ×10e−6 cm/sec | 6.3 ×10e−6 cm/sec | – | – | COC(=O)Nc1ncc2c(-c3ccccc3)nn(-c3ccccc3)c2n1 [Compound 274] | – | –
3 | 100 % control | >50 ×10e−6 cm/sec | 45 ×10e−6 cm/sec | – | – | CNC(=O)c1ncc2c(-c3ccccc3Cl)nn(-c3ccc(F)cc3)c2n1 [Compound 244] | – | –
4 | 100 % control | 19.1 ×10e−6 cm/sec | 26.7 ×10e−6 cm/sec | – | – | CCC(=O)Nc1ncc2c(-c3ccccc3)nn(Cc3ccc(OC)cc3)c2n1 [Compound 269] | – | –
5 | 120 % control | >50 ×10e−6 cm/sec | >50 ×10e−6 cm/sec | – | – | CCc1ccccc1-c1nn(-c2ccc(F)cc2)c2nc(C(=O)NC)ncc12 [Compound 245] | – | –
6 | 98 % control | – | >50 ×10e−6 cm/sec | > 50 ×10⁻⁶ cm/s | – | CNC(=O)c1ncc2c(n1)c(-c1ccc(Cl)cc1)nn2-c1ccnc(C(C)(F)F)n1 [Compound 288, 3-(4-chlorophenyl)-1-[2-(1,1-difluoroethyl)pyrimidin-4-yl]-N-methyl-pyrazolo[4,3-d]pyrimidine-5-carboxamide] | – | –
7 | 95 % control | – | – | 16.5 ×10⁻⁶ cm/s | 39.3 ×10⁻⁶ cm/s | CNC(=O)c1ncc2c(C#Cc3ccccc3)nn(-c3ccc(OC(F)F)cc3)c2n1 [Compound 290, 1-(4-(difluoromethoxy)phenyl)-N-methyl-3-(phenylethynyl)-1H-pyrazolo[3,4-d]pyrimidine-6-carboxamide] | – | –
8 | 100 % control | – | – | 16.9 ×10⁻⁶ cm/s | 11.2 ×10⁻⁶ cm/s | O=C(Cn1cc(-c2ccoc2)c(=O)c2ccc(N3CCCC3)cc21)Nc1ccccc1C(F)(F)F [Compound 149, 2-[3-(furan-3-yl)-4-oxo-7-(pyrrolidin-1-yl)-1,4-dihydroquinolin-1-yl]-N-[2-(trifluoromethyl)phenyl]acetamide] | – | –
9 | 99 % control | – | 5.72 ×10e−6 cm/sec | – | – | O=c1nc2c(ccn2C(F)(F)F)cn1-c1nc(N2Cc3ccccc3C2)oc1-c1ccc(F)cc1 [Compound 242] | – | –
10 | 95 % control | 46.6 ×10e−6 cm/sec | >50 ×10e−6 cm/sec | – | – | CNC(=O)c1ncc2c(-c3ccccc3)nn(Cc3ccccc3)c2n1 [Compound 248] | – | –
11 | 95 % control | – | 2.41 ×10e−6 cm/sec | – | – | Cc1ccnn1-c1nc(-n2cc3ccn(C(F)(F)F)c3nc2=O)c(-c2ccc(F)cc2)o1 [Compound 240] | – | –
